Reference: publication PMC6151802, “A New Series of Cytotoxic Pyrazoline Derivatives as Potential Anticancer Agents that Induce Cell Cycle Arrest and Apoptosis” (Molecules : A Journal of Synthetic Chemistry and Natural …, 2017)

How the values were obtained:
[1] = test system: HepG-2 human hepatoma cell line; experiment: MTT antiproliferative assay, HepG-2; assay type: cell-based; details: for IC50: MTT, 48 h treatment; for SI (selectivity index): SI = IC50, NIH/3T3/IC50, HepG-2
Procedure: (§1) The antiproliferative activity of 1b–12b against three human cancer cell lines (include HepG-2 human hepatoma cell line, Hela human cervical carcinoma cell line and A549 human lung adenocarcinoma cell line) and NIH/3T3 mouse embryonic fibroblast cells were evaluated by the MTT assay (Table 2). […] For Hela cells, the antiproliferative activity of some of the derivatives were similar to that of cis-DDP. […] We selected compound 1b and cis-DDP to generate growth-inhibitory curves (Figure 1) against HepG-2 cells and Hela cells.
(§2) A MTT assay was developed to monitor mammalian cell survival and proliferation in vitro [29]. HepG-2 cells, Hela and A549 cells from the China Center for Type Culture Collection (CCTCC, Wuhan, China) were cultivated in RPMI-1640 medium supplemented with 10% fetal bovine serum (ν/ν), 100 U/mL penicillin, and […] streptomycin. Cells (5 × 10^3 cell/well) at the log phase of their growth cycle were added to each well of a 96-well plate and incubated for 24 h at 37 °C in a humidified atmosphere of 5% CO2. Then, cells were treated with or without test compounds at different concentrations. After 48 h, 5 mg/mL MTT solution (20 μL per well) was added. Cells were incubated at 37 °C. After 4 h, the MTT solution was removed and DMSO was added to each well (150 μL). Eight to twelve minutes later, the optical density (OD) values were measured at room temperature at a wavelength of 595 nm on a FilterMax F3/F5 Microplate Reader (Molecular Devices, Sydney, Australia). In this experiment, 5 mg/mL of cisplatin was used as the positive control and 0.1% DMSO was used as the negative reference. Each assay was carried out at least three times.

[2] = test system: Hela human cervical carcinoma cell line; experiment: MTT antiproliferative assay, Hela; assay type: cell-based; details: 48 h treatment
Procedure: as §1, §2

[3] = test system: A549 human lung adenocarcinoma cell line; experiment: MTT antiproliferative assay, A549; assay type: cell-based; details: 48 h treatment
Procedure: as §1, §2

[4] = test system: NIH/3T3 mouse embryonic fibroblast cells; experiment: MTT cytotoxicity assay, NIH/3T3 normal cells; assay type: cell-based; details: 48 h treatment, read-out: IC50 NIH/3T3 Cell Line
Procedure: as §1, §2

HepG-2 cells [5] = experiment: Flow cytometric analysis of cell cycle distribution (PI); assay type: cell-based, human; details: 24 h, control 9.97%
Source text: Cell cycle arrest is an important sign for inhibition of proliferation and the series of events that take place in a cell leading to its division and replication. […] Compound 1b was chosen for intensive mechanism study on HepG-2 cells because of its highest selectivity index (SI) value of 14.5. After the inhibitory effect of 1b on cell proliferation was observed, we next assessed the effect on the cell cycle distribution of HepG-2 cells by flow cytometry (Figure 3). […] This represented a remarkable difference from 9.97% in the control group (p < 0.05). These findings confirmed that compound 1b could influence HepG-2 cell cycle progression at low micromolar concentrations in a dose-dependent manner.
For flow cytometric analysis of the DNA content, HepG-2 cells (2.0 × 10^5 cells/well) in exponential growth were plated in 6-well plates and incubated for 24 h and then incubated with different concentrations (2.5, 5 and 10 μmol/L) of compound 1b at 37 °C for 24 h. After 24 h treatment, cells were collected, centrifuged, and fixed with ice-cold ethanol (70%) overnight 4 °C. The cells were washed twice with PBS and then treated with lysis buffer containing RNase A (Sigma, St. Louis, MO, USA), which was kept in a lukewarm bath at 37 °C, for 30 min, sequentially, and stained with PI and kept in the dark for 30 min [30]. Then, the samples were analyzed by a flow cytometer (FACSCalibur, BD Accuri^TM C6 BD Instruments Inc., New York, NY, USA). Each experiment was performed in triplicate. DNA histograms were analyzed using Mod Fit (version 3.2) for Windows (Verity Software House, New York, NY, USA).

HepG-2 cells [6] = experiment: Western blot analysis of apoptosis-related proteins; assay type: cell-based, human; details: 2.5, 5 and 10 μM, 24 h
Procedure: To explore the mechanisms underlying apoptosis of compound 1b in HepG-2 cells, the characteristics of apoptosis including p53, caspase 3 and PARP cleavage were examined. […] The features of apoptosis appeared to occur in a dose-dependent manner. Furthermore, we measured the effect of 1b on expression of anti-apoptotic protein Bcl-2 and pro-apoptotic protein Bax in HepG-2 cells.
HepG-2 cells (1.0 × 10^6 cells/well) were seeded in six-well plates. After treatment with compound 1b for 24 h, the preparation of total protein samples from the culture cells for immunoblotting was carried out as previously described. For gel electrophoresis (Novex® NuPAGE® SDS-PAG, Thermo, Waltham, MA, USA), 30–50 μg of protein was used per well. Then the proteins were separated by SDS-PAGE and electroblotted to nitrocellulose membrane. The membrane was incubated with the following indicated antibody: Bcl-2, Bax, caspase-3, p53, PARP and β-actin (Cell Signaling Technology, Beverly, MA, USA) for 12 h at 4 °C. The antibodies were used in […] 5% BSA-TBS-T. The blots were washed four times and then incubated with horseradish peroxidase-conjugated secondary antibody (Santa Cruz Biotechnology Laboratories. Santa Cruz, CA, USA) for 1.5 h at room temperature. β-Actin antibody was used for equal loading.

HepG-2 cells [7] = experiment: Plate colony formation (clonogenic survival) assay; assay type: cell-based, human; details: different concentrations of 1b
Procedure: To assess the antiproliferative effect of compound 1b (Figure 2), we analyzed clonogenicity of HepG-2 cells after the treatment with 1b for 48 h.
Additionally, we used plate colony formation assay to evaluate the colony formation ability of HepG-2 cells. The cells were seeded in the complete medium in 6-well plate at 600 cells per well. After attachment, cells were exposed to different concentrations of compound 1b. After 7 days, the cells were fixed with paraformaldehyde for 20 min and stained with 1% crystal violet solution for 30 min to observe colonies.

HepG-2 cells [8] = experiment: Cellular apoptosis by Annexin V-FITC/PI flow cytometry; assay type: cell-based, human; details: 24 h; for total percentage of apoptotic cells (early and late, Q2 + Q3): vehicle 2.921%
Procedure: To examine the potency of the cancer cell apoptosis effect of 1b on HepG-2 cells, the number of apoptotic cells was monitored using flow cytometry. […] The total percentage of apoptotic cells (early and late, Q2 + Q3) was 2.921% when treated with vehicle alone.
HepG-2 cells (2.0 × 10^5 cells/well) were plated in a 6-well plate and allowed to adhere. After 24 h, the medium was replaced with fresh culture medium containing compound 1b at final concentrations of 2.5, 5, and 10 μmol/L at 37 °C. After 24 h, the cells were harvested and staining solution was added (containing 5 μL Annexin V-FITC and 5 μL PI). The cells were then incubated for 15 min at 20–25 °C in the dark. The samples were then detected in a FACScalibur BD Accuri^TM C6 flow cytometer. Analyses were performed by the software supplied with the instrument.

SMILES | IC50 [1] [µM] | SI (selectivity index) [1] | IC50 [2] [µM] | IC50 [3] [µM] | IC50 [4] [µM] | percentage of cells at the G2/M phase (HepG-2 cells [5]; 2.5 μmol/L) [%] | percentage of cells at the G2/M phase (HepG-2 cells [5]; 5 μmol/L) [%] | percentage of cells at the G2/M phase (HepG-2 cells [5]; 10 μmol/L) [%] | PARP cleavage (HepG-2 cells [6]) | expression of anti-apoptotic protein Bcl-2 (HepG-2 cells [6]) | expression of pro-apoptotic protein Bax (HepG-2 cells [6]) | level of cleaved caspase-3 (HepG-2 cells [6]) | level of p53 (HepG-2 cells [6]) | clonogenicity / plate colony formation of HepG-2 cells (HepG-2 cells [7]) | fold percentage of apoptotic cells in comparison with the control group (HepG-2 cells [8]; 2.5 μmol/L) [fold] | total percentage of apoptotic cells (early and late, Q2 + Q3) (HepG-2 cells [8]; 2.5 μmol/L) [%] | fold percentage of apoptotic cells in comparison with the control group (HepG-2 cells [8]; 5 μmol/L) [fold] | total percentage of apoptotic cells (early and late, Q2 + Q3) (HepG-2 cells [8]; 5 μmol/L) [%] | fold percentage of apoptotic cells in comparison with the control group (HepG-2 cells [8]; 10 μmol/L) [fold] | total percentage of apoptotic cells (early and late, Q2 + Q3) (HepG-2 cells [8]; 10 μmol/L) [%]
CCOc1cc(C2CC(c3ccccc3O)=NN2C(N)=S)cc(Br)c1O (stereo not drawn) [9b, 3-(2-Hydroxyphenyl)-5-(3-ethyoxyl-4-hydroxy-5-bromothiophenyl)-4,5-dihydro-1H-pyrazole-1-carbothioamide] | 32.2 ± 2.83 | >3.10 | 7.74 ± 1.63 | > 100 | > 100 |  |  |  |  |  |  |  |  |  |  |  |  |  |  | 
N.N.[Cl][Pt][Cl] [cis-DDP, cisplatin, reference compound] | 7.57 ± 0.98 | 0.64 | 5.28 ± 0.66 | 29.5 ± 3.3 | 4.88 ± 1.93 |  |  |  |  |  |  |  |  |  |  |  |  |  |  | 
COc1cc(C2CC(c3ccc(F)cc3)=NN2C(N)=S)cc(OC)c1OC (stereo not drawn) [1b] | 6.78 ± 1.44 | >14.75 | 7.63 ± 1.35 | > 100 | > 100 | 25.06 | 56.15 | 71.25 | PARP was cleaved into fragmentation of 89 kDa | decrease in expression | increase in expression | dramatically increased | dramatically increased | significantly reduced cell viability in a dose-dependent fashion | 1.33 | 3.889 | 2.26 | 6.581 | 3.53 | 10.309
